Four compounds from ChEMBL document CHEMBL1127083 (J Med Chem, 1993) can be followed below.

The target of assay [1] is Leukotriene B4 receptor 1 (Homo sapiens, UniProt Q15722). Briefly: Tested for inhibition of specific binding of [3H]LTB4 to human neutrophil expressing LTB4 receptor.
The target of the next assay is Leukotriene B4 receptor (Homo sapiens, UniProt Q9NPC1+Q15722). Description: Inhibition of LTB4-induced up-regulation of human neutrophil CD11b/CD18 integrin. It is filed as functional.

SMILES strings stand for the structures.

Leukotriene B4 receptor 1, sequence (Q15722 whole entry): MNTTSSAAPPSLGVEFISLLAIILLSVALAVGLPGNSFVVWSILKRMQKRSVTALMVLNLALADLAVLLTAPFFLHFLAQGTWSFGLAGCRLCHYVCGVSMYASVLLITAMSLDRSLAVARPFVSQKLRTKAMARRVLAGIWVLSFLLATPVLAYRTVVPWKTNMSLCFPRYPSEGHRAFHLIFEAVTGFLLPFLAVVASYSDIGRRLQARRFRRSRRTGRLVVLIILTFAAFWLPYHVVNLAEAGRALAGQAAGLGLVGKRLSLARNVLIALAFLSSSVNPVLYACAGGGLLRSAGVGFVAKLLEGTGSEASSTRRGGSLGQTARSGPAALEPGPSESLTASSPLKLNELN

With `CCc1cc(-c2ccc(F)cc2)c(O)cc1OCCCOc1ccc2c(=O)c3ccccc3oc2c1CCC(=O)O`, the Ki in assay [1] was found to be 36 nM. This compound had an IC50 at Leukotriene B4 receptor of 1.8 nM.
The compound `CCc1cc(-c2ccccc2)c(O)cc1OCCCOc1ccc2c(=O)c3cc(C(=O)O)ccc3oc2c1CCC(=O)O` returned a Ki in assay [1] of 0.57 nM. At Leukotriene B4 receptor, this compound returned an IC50 of 3.4 nM.
The like results for `CCc1cc(-c2ccc(F)cc2)c(O)cc1OCCCOc1ccc2c(=O)c3cc(C(=O)O)ccc3oc2c1CCC(=O)O` were, in that order, 0.47 nM and 1.2 nM.
The like results for `CCc1cc(-c2ccccc2)c(O)cc1OCCCOc1ccc2c(=O)c3ccccc3oc2c1CCC(=O)O` were, in that order, 22 nM and 5.4 nM.

The Ki is a dissociation constant, usually derived from enzyme kinetics or from competition with a known ligand. The low end stands for higher affinity, the high end for lower affinity. As a reminder, the IC50 is the concentration that gives 50% inhibition. Read a high IC50 as lower potency.
